According to patent US7713958B2, “Compounds and compositions as protein kinase inhibitors” (IRM LLC, priority 2003, dated 2010):

Legend:
Type in all cases: biochemical
CDK1 = CDK1 (Homo sapiens, UniProt P06493); experiment: Kinase inhibition at 10 μM, CDK1; conditions: 10 μM of Compound; read-out: Percentage Inhibition of CDK1
c-Abl = c-Abl (Homo sapiens, UniProt P00519); experiment: Kinase inhibition at 10 μM, c-Abl; conditions: 10 μM of Compound; read-out: Percentage Inhibition of c-Abl
Flt-3 = target: T1, Flt-3 (Homo sapiens, UniProt P36888); experiment: Kinase inhibition at 10 μM, Flt-3; conditions: 10 μM of Compound; read-out: Percentage Inhibition of Flt-3
T1 sequence (P36888 27-993): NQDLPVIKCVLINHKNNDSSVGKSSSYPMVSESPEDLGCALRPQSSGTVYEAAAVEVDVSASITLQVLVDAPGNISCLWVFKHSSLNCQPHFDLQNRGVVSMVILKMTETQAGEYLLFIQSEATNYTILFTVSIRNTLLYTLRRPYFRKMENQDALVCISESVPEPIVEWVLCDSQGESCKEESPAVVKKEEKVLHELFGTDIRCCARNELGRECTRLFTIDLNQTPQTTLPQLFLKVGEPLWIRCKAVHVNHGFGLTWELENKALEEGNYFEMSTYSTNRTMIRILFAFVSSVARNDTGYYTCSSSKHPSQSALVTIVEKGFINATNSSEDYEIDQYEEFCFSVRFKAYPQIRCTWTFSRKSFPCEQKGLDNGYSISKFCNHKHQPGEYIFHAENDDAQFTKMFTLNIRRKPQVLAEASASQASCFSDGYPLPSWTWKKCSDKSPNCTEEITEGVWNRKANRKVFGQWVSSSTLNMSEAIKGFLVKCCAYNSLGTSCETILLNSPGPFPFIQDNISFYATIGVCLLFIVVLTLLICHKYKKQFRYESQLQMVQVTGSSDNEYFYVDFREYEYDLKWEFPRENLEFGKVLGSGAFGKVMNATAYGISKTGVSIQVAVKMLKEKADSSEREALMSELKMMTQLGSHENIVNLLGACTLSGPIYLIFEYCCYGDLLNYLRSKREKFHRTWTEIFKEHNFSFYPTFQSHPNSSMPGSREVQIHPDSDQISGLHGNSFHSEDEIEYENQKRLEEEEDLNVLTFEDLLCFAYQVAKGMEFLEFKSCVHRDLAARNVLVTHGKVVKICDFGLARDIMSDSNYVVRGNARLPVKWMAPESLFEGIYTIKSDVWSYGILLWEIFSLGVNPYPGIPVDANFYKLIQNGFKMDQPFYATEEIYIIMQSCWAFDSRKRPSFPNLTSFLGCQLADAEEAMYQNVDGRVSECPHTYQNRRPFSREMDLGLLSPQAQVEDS

IGF-1R = IGF-1R (Homo sapiens, UniProt P08069); experiment: Kinase inhibition at 10 μM, IGF-1R; conditions: 10 μM of Compound; read-out: Percentage Inhibition of IGF-1R
c-Kit = c-Kit (Homo sapiens, UniProt P10721); experiment: Kinase inhibition at 10 μM, c-Kit; conditions: 10 μM of Compound; read-out: Percentage Inhibition of c-Kit
Flt-1 = Flt-1 (Homo sapiens, UniProt P17948); experiment: Kinase inhibition at 10 μM, Flt-1; conditions: 10 μM of Compound; read-out: Percentage Inhibition of Flt-1
Tek = Tek (Homo sapiens, UniProt Q02763); experiment: Kinase inhibition at 10 μM, Tek; conditions: 10 μM of Compound; read-out: Percentage Inhibition of Tek
c-src = c-src (Homo sapiens, UniProt P12931); experiment: Kinase inhibition at 10 μM, c-src; conditions: 10 μM of Compound; read-out: Percentage Inhibition of c-src
KDR = KDR (Homo sapiens, UniProt P35968); experiment: Kinase inhibition at 10 μM, KDR; conditions: 10 μM of Compound; read-out: Percentage Inhibition of KDR
FGFR-1 = FGFR-1 (Homo sapiens, UniProt P11362); experiment: Kinase inhibition at 10 μM, FGFR-1; conditions: 10 μM of Compound; read-out: Percentage Inhibition of FGFR-1
c-Met = c-Met (Homo sapiens, UniProt P08581); experiment: Kinase inhibition at 10 μM, c-Met; conditions: 10 μM of Compound; read-out: Percentage Inhibition of c-Met
PDGFR-β = PDGFR-β (Homo sapiens, UniProt P09619); experiment: Kinase inhibition at 10 μM, PDGFR-β; conditions: 10 μM of Compound; read-out: Percentage Inhibition of PDGFR-β

c-src, sequence (P12931 whole entry, species assumed): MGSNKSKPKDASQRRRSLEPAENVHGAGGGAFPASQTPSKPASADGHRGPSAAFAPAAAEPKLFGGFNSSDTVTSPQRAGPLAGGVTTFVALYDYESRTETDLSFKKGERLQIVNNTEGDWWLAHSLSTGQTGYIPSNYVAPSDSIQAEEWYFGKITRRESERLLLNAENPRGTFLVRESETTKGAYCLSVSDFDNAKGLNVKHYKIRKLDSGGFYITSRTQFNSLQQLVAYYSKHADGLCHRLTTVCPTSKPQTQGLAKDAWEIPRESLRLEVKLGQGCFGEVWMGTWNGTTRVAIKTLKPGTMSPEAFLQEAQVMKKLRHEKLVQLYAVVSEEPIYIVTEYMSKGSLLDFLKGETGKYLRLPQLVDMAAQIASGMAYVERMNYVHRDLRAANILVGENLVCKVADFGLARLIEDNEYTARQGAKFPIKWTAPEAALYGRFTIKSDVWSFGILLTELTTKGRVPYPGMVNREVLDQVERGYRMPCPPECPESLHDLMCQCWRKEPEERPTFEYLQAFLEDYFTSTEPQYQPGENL
Tek, sequence (Q02763 23-1124, species assumed): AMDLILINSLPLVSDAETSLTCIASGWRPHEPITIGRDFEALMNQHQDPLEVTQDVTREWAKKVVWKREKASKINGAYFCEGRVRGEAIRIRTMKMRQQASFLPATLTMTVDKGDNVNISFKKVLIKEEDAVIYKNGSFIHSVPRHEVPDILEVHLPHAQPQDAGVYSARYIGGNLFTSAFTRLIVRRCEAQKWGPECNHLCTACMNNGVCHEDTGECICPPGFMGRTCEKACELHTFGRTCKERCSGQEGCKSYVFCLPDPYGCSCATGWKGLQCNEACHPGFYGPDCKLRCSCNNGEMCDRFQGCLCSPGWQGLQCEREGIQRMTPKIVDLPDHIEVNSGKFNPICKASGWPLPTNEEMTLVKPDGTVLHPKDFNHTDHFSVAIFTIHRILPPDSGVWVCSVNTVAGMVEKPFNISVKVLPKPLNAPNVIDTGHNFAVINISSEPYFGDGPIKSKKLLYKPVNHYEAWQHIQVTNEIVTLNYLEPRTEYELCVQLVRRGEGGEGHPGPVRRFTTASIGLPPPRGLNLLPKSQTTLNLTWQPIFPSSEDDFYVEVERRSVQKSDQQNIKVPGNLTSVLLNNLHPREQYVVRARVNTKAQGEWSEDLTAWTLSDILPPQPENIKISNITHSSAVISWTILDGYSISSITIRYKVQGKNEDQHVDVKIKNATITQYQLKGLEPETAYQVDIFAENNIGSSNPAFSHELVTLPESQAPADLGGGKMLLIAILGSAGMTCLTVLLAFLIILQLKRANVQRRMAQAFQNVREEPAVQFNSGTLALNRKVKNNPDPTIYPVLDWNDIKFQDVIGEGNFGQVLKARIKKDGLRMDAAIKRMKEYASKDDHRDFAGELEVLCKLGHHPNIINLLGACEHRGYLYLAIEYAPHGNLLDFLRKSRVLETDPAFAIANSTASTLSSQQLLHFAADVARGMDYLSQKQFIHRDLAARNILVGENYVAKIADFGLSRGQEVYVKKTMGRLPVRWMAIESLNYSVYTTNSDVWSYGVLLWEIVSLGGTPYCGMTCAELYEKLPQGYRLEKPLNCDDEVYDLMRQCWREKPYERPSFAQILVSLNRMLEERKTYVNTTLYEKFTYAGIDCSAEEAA
CDK1, sequence (P06493 whole entry, species assumed): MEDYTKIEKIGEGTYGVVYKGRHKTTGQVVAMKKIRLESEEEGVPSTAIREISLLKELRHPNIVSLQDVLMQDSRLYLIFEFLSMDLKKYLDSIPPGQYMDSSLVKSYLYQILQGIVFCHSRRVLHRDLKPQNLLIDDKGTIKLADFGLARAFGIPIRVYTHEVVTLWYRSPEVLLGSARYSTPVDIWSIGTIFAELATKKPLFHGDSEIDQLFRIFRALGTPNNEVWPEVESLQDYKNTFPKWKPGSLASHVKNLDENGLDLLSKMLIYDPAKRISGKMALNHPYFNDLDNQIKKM
CDK1, sequence (P14635 whole entry partner, species assumed): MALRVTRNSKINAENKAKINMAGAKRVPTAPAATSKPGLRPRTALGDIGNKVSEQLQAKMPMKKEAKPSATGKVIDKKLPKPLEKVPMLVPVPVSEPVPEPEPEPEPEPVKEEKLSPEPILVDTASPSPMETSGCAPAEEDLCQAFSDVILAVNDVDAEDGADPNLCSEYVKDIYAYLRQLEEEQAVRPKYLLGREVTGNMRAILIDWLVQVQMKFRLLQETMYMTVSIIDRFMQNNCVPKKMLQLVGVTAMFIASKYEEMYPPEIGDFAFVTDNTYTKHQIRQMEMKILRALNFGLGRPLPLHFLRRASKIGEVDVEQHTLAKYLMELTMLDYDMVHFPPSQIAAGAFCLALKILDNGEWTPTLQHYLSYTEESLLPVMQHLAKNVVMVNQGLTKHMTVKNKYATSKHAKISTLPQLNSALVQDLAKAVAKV
Flt-1, sequence (P17948 27-1338, species assumed): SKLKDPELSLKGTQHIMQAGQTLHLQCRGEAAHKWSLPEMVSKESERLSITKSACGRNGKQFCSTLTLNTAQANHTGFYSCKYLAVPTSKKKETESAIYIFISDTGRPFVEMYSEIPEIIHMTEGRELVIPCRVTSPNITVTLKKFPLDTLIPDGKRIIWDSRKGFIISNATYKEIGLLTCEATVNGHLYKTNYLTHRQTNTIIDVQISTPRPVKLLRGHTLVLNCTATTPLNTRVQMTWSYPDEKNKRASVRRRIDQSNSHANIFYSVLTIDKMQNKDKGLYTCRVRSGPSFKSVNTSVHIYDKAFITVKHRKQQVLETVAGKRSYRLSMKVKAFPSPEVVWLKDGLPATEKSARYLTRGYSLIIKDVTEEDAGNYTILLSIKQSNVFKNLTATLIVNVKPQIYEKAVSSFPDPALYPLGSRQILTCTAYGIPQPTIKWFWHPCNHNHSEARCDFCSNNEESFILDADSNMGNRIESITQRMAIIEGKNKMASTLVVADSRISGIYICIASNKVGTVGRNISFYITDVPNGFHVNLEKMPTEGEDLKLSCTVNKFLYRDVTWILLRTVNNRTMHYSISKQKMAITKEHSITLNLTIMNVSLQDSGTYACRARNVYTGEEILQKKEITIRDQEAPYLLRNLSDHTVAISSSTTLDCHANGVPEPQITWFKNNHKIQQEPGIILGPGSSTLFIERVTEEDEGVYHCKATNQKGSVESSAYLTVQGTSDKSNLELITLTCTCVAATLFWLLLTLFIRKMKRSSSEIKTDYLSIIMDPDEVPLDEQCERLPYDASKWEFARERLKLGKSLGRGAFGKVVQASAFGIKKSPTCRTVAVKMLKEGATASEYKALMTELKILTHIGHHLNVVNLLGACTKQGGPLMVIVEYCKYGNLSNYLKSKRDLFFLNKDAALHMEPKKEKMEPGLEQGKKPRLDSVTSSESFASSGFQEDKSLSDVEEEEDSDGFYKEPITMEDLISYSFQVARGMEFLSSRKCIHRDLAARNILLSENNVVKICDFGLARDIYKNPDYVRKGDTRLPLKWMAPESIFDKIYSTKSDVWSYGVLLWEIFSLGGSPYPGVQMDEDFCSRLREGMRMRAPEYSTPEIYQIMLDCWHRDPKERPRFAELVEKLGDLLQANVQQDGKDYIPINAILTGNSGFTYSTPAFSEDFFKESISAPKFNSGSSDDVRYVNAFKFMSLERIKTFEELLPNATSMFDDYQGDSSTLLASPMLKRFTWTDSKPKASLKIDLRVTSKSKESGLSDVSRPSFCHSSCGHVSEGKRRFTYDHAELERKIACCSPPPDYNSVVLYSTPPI
IGF-1R, sequence (P08069 31-1367, species assumed): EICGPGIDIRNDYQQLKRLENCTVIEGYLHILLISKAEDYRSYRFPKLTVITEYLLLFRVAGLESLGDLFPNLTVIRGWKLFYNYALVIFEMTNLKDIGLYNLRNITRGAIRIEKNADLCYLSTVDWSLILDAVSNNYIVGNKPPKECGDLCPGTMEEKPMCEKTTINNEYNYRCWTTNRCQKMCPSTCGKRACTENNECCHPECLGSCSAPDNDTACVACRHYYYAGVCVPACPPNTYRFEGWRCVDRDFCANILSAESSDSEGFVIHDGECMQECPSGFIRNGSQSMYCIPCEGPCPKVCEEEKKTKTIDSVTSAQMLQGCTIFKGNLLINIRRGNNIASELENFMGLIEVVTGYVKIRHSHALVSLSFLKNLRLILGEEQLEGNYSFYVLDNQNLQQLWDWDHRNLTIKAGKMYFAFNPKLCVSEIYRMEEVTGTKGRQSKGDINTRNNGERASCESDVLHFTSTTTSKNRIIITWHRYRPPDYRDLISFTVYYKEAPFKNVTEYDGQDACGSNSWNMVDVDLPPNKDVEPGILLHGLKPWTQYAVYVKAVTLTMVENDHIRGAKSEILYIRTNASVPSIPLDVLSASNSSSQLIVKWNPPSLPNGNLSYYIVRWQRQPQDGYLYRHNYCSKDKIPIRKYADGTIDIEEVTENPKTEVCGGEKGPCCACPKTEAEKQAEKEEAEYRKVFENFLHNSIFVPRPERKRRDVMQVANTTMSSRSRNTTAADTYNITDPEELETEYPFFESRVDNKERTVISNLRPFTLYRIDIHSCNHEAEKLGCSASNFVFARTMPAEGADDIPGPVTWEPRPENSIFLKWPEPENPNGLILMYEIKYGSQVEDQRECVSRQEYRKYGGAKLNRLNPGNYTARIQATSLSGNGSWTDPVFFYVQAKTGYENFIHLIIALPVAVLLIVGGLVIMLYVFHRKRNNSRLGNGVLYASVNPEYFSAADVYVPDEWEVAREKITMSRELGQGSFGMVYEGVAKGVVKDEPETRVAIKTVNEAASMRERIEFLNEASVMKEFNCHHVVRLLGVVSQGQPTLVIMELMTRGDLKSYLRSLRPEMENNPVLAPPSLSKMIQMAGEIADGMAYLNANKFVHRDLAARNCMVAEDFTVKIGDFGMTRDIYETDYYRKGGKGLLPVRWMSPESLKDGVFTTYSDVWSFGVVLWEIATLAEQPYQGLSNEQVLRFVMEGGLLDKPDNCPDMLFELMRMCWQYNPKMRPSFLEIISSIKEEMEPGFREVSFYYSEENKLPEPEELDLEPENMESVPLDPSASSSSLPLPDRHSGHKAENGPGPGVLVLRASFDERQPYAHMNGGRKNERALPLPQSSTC

SMILES | inhibition at 10 µM (CDK1) | inhibition at 10 µM (c-Abl) | inhibition at 10 µM (Flt-3) | inhibition at 10 µM (IGF-1R) | inhibition at 10 µM (c-Kit) | inhibition at 10 µM (Flt-1) | inhibition at 10 µM (Tek) | inhibition at 10 µM (c-src) | inhibition at 10 µM (KDR) | inhibition at 10 µM (FGFR-1) | inhibition at 10 µM (c-Met) | inhibition at 10 µM (PDGFR-β)
NS(=O)(=O)c1ccc(N/N=C2\CCNC(=O)c3[nH]c4ccc(Cl)cc4c32)cc1 [Compound 31, 4-[N′-(7-chloro-1-oxo-1,3,4,10-tetrahydro-2H-azepino[3,4-b]indol-5-ylidene)-hydrazino]-benzenesulfonamide] | 95% | – | – | – | – | – | – | – | – | – | – | –
NC1=NC(=O)/C(=C2\CCNC(=O)c3[nH]c4ccc(F)cc4c32)N1 [Compound 12, 5-(2-amino-5-oxo-3,5-dihydro-imidazol-4-ylidene)-7-fluoro-3,4,5,10-tetrahydro-2H-azepino[3,4-b]indol-1-one] | 99% | – | – | – | 86% | – | – | 89% | 70% | 89% | 74% | –

Now from value to molecule:

inhibition at 10 µM (CDK1) | inhibition at 10 µM (c-Abl) | inhibition at 10 µM (Flt-3) | inhibition at 10 µM (IGF-1R) | inhibition at 10 µM (c-Kit) | inhibition at 10 µM (Flt-1) | inhibition at 10 µM (Tek) | inhibition at 10 µM (c-src) | inhibition at 10 µM (KDR) | inhibition at 10 µM (FGFR-1) | inhibition at 10 µM (c-Met) | inhibition at 10 µM (PDGFR-β) | SMILES
88% | 91% | 72% | 82% | 79% | 85% | 73% | 92% | – | – | – | – | O=C1NCC/C(=N\Nc2ccccn2)c2c1[nH]c1ccc(Cl)cc21 [Compound 24, 7-chloro-5-(pyridin-2-yl-hydrazono)-3,4,5,10-tetrahydro-2H-azepino[3,4-b]indol-1-one]
98% | 86% | 75% | 76% | – | 79% | 81% | 90% | – | – | – | – | O=C1NCC/C(=N\Nc2ccccn2)c2c1[nH]c1ccc(F)cc21 [Compound 37, 7-fluoro-5-(pyridin-2-yl-hydrazono)-3,4,5,10-tetrahydro-2H-azepino[3,4-b]indol-1-one]
97% | – | – | – | – | – | 70% | 78% | – | – | – | 97% | O=C1NCC/C(=N\Nc2cccnc2)c2c1[nH]c1ccc(Cl)cc21 [Compound 33, 7-chloro-5-(pyridin-3-yl-hydrazono)-3,4,5,10-tetrahydro-2H-azepino[3,4-b]indol-1-one]
